Test results reported in PubChem BioAssay AID1645866 (Buhrlage Lab, Dana-Farber Cancer Institute and Novartis …, 2021).
Activity calls are given as the source filed them.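 The calls were made as follows: active = in confirmatory dose-response testing, peak deubiquitinase inhibition of 30% or more; inactive = the rest.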

What follows are compounds tested against Ubiquitin carboxyl-terminal hydrolase 28 (Homo sapiens) (UniProt Q96RU2) (assay: Ubiquitin-specific peptidase 28 DUB inhibitors, biochemical concentration-dependence assay, validation of primary screening hits (AID 1645866)). Settings: purified USP28, ubiquitin-rhodamine fluorescence, 30 min.
Chain of Ubiquitin carboxyl-terminal hydrolase 28 (Homo sapiens) (Q96RU2 whole entry, looked up): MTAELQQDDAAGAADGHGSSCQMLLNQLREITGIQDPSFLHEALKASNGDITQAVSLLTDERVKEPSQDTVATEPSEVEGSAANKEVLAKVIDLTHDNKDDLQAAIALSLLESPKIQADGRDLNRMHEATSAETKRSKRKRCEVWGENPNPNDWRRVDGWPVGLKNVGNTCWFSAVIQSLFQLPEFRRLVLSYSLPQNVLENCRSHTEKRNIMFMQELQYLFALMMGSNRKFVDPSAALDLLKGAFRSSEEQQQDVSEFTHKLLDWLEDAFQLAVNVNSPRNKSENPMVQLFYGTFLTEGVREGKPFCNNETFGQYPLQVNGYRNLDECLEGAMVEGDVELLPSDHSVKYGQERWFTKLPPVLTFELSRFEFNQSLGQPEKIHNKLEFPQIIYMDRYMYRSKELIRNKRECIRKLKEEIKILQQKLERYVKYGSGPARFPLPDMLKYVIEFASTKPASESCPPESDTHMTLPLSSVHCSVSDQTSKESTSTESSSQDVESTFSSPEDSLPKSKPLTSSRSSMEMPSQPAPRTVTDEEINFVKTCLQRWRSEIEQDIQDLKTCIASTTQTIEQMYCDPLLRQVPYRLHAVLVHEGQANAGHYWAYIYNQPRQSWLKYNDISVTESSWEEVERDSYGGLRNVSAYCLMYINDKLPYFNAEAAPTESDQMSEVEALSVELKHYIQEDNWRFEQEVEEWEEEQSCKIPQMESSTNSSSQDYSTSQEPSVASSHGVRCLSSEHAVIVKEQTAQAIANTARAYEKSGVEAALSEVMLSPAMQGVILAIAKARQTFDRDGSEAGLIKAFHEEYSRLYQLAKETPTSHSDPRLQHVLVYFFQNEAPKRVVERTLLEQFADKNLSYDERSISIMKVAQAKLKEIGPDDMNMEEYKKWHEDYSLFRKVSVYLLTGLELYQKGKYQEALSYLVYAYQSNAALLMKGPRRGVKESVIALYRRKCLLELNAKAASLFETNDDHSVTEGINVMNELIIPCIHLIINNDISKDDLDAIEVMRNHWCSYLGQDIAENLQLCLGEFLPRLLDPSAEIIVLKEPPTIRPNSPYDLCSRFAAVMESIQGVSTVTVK

Row | Compound | IC50
1 | O=S1(=O)CCN(CC2CCCO2)c2c(Oc3ccccc3)nc(F)c(Cl)c21 (stereo not given) | > 50 µM (inactive)
2 | CCN(CC)c1nc(F)c2c(c1F)S(=O)(=O)CCN2Cc1ccccc1 | > 50 µM (inactive)
3 | Cc1nn(-c2nc3ccccc3[nH]2)c2c1C(c1cccs1)CC(=O)N2 (stereo not given) | > 50 µM (inactive)
4 | O=C(CN1CCCCC1)Nc1nnc(-c2ccc([N+](=O)[O-])cc2)s1 | 14 µM
5 | CC(OC(=O)CNC(=O)c1ccc(Br)cc1)C(=O)Nc1ccc2c(c1)OCCO2 (stereo not given) | 25.8 µM
6 | CCOC(=O)c1c(C)oc2nc(CSc3ccccc3)[nH]c(=O)c12 | 17 µM
7 | COc1ccc(C)cc1NC(=O)Cc1csc(NC(=O)c2ccc(=O)[nH]c2)n1 | 46.9 µM
8 | Cc1cc(-n2c(C)cc(-c3csc(N)n3)c2C)no1 | > 50 µM (inactive)
9 | O=[N+]([O-])c1ccc(NCC2COc3ccccc3O2)c(Cl)c1 (stereo not given) | 3.75 µM
10 | Cc1ccn(-c2ccc(NC(=O)C3CCCCC3)cc2)n1 | 22.6 µM
11 | CCOc1ccc(CC(=O)Nc2ccc(-c3cn4cccnc4n3)cc2)cc1 | 14.6 µM
12 | O=C(Cc1ccc(Cl)c(Cl)c1)OCC(=O)c1c[nH]c2ccccc12 | > 50 µM (inactive)
13 | Cc1cccc(S(=O)(=O)N2CCc3nc4ccccc4n3CC2)c1 | 24.3 µM
14 | COc1ccc(C(=O)NCC(c2ccc3c(c2)CCCN3C)N2CCCC2)cc1 (stereo not given) | > 50 µM (inactive)
15 | O=C(CCCn1c(=O)[nH]c2cc(Cl)ccc2c1=O)N1CCc2ccccc2C1 | 19.4 µM
16 | Cc1nn(-c2ccccc2)c2c1N=C1C(Cl)=CC(Cl)=CN1C21C(=O)Nc2ccccc21 (stereo not given) | > 50 µM (inactive)
17 | c1ccc2c(-c3nc(C4CC4)no3)nnc(NCc3ccncc3)c2c1 | 35.9 µM
18 | Cc1nc(C(=O)N[C@@H](C)C(=O)NCc2ccc3c(c2)OCO3)cc2c1[nH]c1ccccc12 | 22.5 µM
19 | O=C(CCc1nnc2n(Cc3ccccc3Cl)c(=O)c3ccccc3n12)NCc1ccccn1 | 23.4 µM
20 | O=C1/C(=C/c2cn(-c3ccccc3)nc2-c2ccc3c(c2)OCCO3)Cc2ccccc21 | > 50 µM (inactive)
21 | Cc1ccc(NC(=O)c2nnn(-c3ccccc3Br)c2C)cc1C | 1.53 µM
22 | O=C(NCc1ccc(F)cc1)C1CCCN(c2cnc3nccnc3c2)C1 (stereo not given) | > 50 µM (inactive)
23 | N#Cc1cc(C(=O)c2ccc(Cl)cc2)c[nH]1 | 41.9 µM
24 | COc1ccc(CNC(=O)CN2C(=O)CC(c3ccccc3)=Nc3ccccc32)cc1 | 11.9 µM
25 | Cc1ccc2nc(CCc3ccc(NS(=O)(=O)c4cccc(Cl)c4C)cc3)[nH]c2c1 | 27.1 µM

Row | Compound | IC50
26 | COc1ccc(OC)c(-c2cn3ccn(-c4ccc5c(c4)CCC5)c(=O)c3n2)c1 | > 50 µM (inactive)
27 | O=C(NCCc1ccccn1)c1cc(-c2ccc(Br)cc2)n[nH]1 | 13.8 µM
28 | Cc1ccc(-c2nc(NC(=O)COc3ccc(Cl)cc3)no2)cc1 | 4.74 µM
29 | Cc1ccc(CNC(=O)CCCn2c(=O)c3sccc3n(CC(=O)Nc3cc(Cl)ccc3C)c2=O)cc1 | 2.87 µM
30 | O=C(CN1CCCc2ccccc21)Nc1ccc(N2CCOCC2)cc1 | > 50 µM (inactive)
31 | O=C(/C=C/c1ccc2c(c1)OCO2)Nc1nc2c(s1)COCC2 | 27.5 µM
32 | O=C(NC1CCN(c2nc(-c3cccnc3)nc3ccccc23)CC1)c1cccnc1 | 15.1 µM
33 | O=C(Nc1ccc(-c2cn3ccsc3n2)cc1)c1ccc(Cl)c([N+](=O)[O-])c1 | 1.53 µM
34 | Cc1nn(-c2ccc(F)cc2)cc1-c1noc(C(=O)NCc2ccccn2)n1 | 22.8 µM
35 | CNC(=O)c1cc2nc(N(C)C)n(-c3ccccc3)c2s1 | 27.1 µM
36 | COc1ccc(CCNC(=O)CCCn2c(=O)c3ccccc3n(CC(=O)OCc3ccccc3)c2=O)cc1OC | 16 µM
37 | COc1cc(O)c2c(c1)C1=CC(=O)C(O)=C[C@]1(C)OC2=O | 30.1 µM
38 | COc1ccc(NC(=O)c2nc3n(n2)-c2ccccc2S(=O)(=O)N3)cn1 | > 50 µM (inactive)
39 | CCc1ccc(-n2nc(C)c3c2NC(=O)CC3C(=O)c2ccc3c(c2)OCCO3)cc1 (stereo not given) | 26.4 µM
40 | O=C(c1cn(-c2cccc(F)c2)nn1)N1CCc2ccccc2C1 | 22.8 µM
41 | CCN(CC)C(=O)CN1CCCC(c2ncncc2-c2cc(C)no2)C1 (stereo not given) | > 50 µM (inactive)
42 | O=C(CCc1c[nH]c2ccccc12)Nc1ccc(N2CCOCC2)cc1 | 24.9 µM
43 | CC(CCc1ccccc1)NC(=O)Cn1c(=O)c2cccn2c2ccccc21 (stereo not given) | 14.3 µM
44 | COc1ccc(C(=O)Nc2nc3n(n2)C(c2ccccc2)CC(=O)N3)cc1 (stereo not given) | 12.5 µM
45 | O=C(/C=C/c1ccco1)c1cccc([N+](=O)[O-])c1 | 21.9 µM
46 | CCc1cc2c(=O)[nH]c(Cc3ccc(OC)cc3)nc2s1 | 19.7 µM
47 | O=C(c1cc(-c2ccc(Cl)cc2)n[nH]1)N1CCN(C(=O)c2ccco2)CC1 | 25.8 µM
48 | NS(=O)(=O)c1cc(C(=O)OCC(=O)NC2CCCc3ccccc32)ccc1Cl (stereo not given) | 31.2 µM
49 | CSc1nc2ncc3c(=O)n(CCc4ccccc4)ccc3n2n1 | > 50 µM (inactive)
50 | COc1cc(Cl)ccc1Oc1ncnc2sc(C)c(C)c12 | > 50 µM (inactive)

Row | Compound | IC50
51 | CCOC(=O)c1cc2c(ccn2C)n1Cc1cccc2ccccc12 | > 50 µM (inactive)
52 | CC1(C)Cc2nc3sc4c(=O)n(CC(=O)NCc5ccccc5)cnc4c3cc2CO1 | 32.9 µM
53 | COCCNC(=O)Cn1c(=O)n(Cc2ccccc2)c(=O)c2c3c(sc21)CCC3 | 32.7 µM
54 | O=c1c2ccccc2oc2nc(-c3cccs3)n(-c3ccccc3)c(=O)c12 | 2.12 µM
55 | Cc1cc(C)cc(N(CCC(=O)Nc2ccc(N3CCOCC3)cc2)S(=O)(=O)c2ccc(Cl)cc2)c1 | 12.9 µM
56 | O=C(/C=C/c1ccc(F)cc1)N1CCc2ccccc2C1 | 35.1 µM
57 | CCN1C(SCc2ccccc2F)=NS(=O)(=O)c2ccccc21 | 12.6 µM
58 | N#Cc1ccccc1COC(=O)c1ccc2ccccc2n1 | 6.94 µM
59 | COc1ccc2c(c1)c(N1CCCC1=O)c(C(=O)NCc1cccc(OC)c1OC)n2C | > 50 µM (inactive)
60 | Cc1ccccc1NC(=O)C(C)n1c(=O)cc(-c2ccccc2)c2c(C)nn(C)c21 (stereo not given) | 7.75 µM
61 | O=C(Cn1cncc(-c2nc(-c3ccccc3)cs2)c1=O)NC1CCCC1 | 36.5 µM
62 | CN(C)C(=O)CSc1nnc(-c2cccc(Cl)c2)n1-c1ccc(Cl)c(C(F)(F)F)c1 | 5.78 µM
63 | Cc1cc(-c2ccnc3c(C#N)cnn23)c(C)s1 | 28.3 µM
64 | COc1ccc(S(=O)(=O)N(C)Cc2cccs2)cc1OC | 17.4 µM
65 | CN1CCN(C(=O)c2cc(-c3ccn(CC4CC4)n3)n3ccccc23)CC1 | > 50 µM (inactive)
66 | CCOc1cc(N2CCOCC2)c(OCC)cc1NC(=O)c1cc(-c2ccncc2)nc2ccccc12 | 7.24 µM
67 | COc1ccc2cc3c(nc2c1)OC(=O)N(CCc1cccc(F)c1)C3 | 0.233 µM
68 | COc1ccc(-c2cc(C(=O)N3CCN(c4ccc([N+](=O)[O-])cc4)CC3)[nH]n2)cc1 | > 50 µM (inactive)
69 | COc1ccc(NC(=O)c2[nH]nc3c2COc2ccccc2-3)c(OC)c1 | 6.94 µM
70 | Cc1[nH]nc(NC(=O)C2COc3ccccc3O2)c1-c1ccccc1 (stereo not given) | 15.1 µM
71 | O=C(Cn1c(=O)n(Cc2ccco2)c(=O)c2ccc(C(=O)NC3CCCC3)cc21)NCc1ccco1 | 27.5 µM
72 | Cc1ccc(C(=O)Nc2ccc3nccnc3c2)cc1 | 9.87 µM
73 | CC(C(=O)Nc1ccccc1)n1cnc2nc(N3CCCCC3)ncc2c1=O (stereo not given) | > 50 µM (inactive)
74 | CCN(Cc1ccccc1)S(=O)(=O)c1ccc(C(=O)Nc2ccc3c(c2)OCCO3)cc1 | 5.98 µM
75 | Cc1cnc2nc3c(cc2c1)CN(S(=O)(=O)c1cc(F)ccc1C)CC3 | > 50 µM (inactive)
